Laboratory results published in patent US20090181420A1, “Inhibiting Smad signaling promotes neuron regeneration” (Children's Medical Center Corporation, priority 2006, published 2009).

Tests used:
Smad2/3 signaling [1] = experiment: Directed forepaw reaching (DFR) task after dorsal corticospinal tract transection; format: in vivo, Sprague Dawley rats; conditions: rats, sixth week after surgery; SB-505124 30 mg/kg tail vein or siRNA 10 μl intrathecal, days 1-7; vs lesion and vehicle groups
From the text: Adult Sprague Dawley rats (300-400 gm) are trained and tested in a directed forepaw reaching (DFR) apparatus which measures grasping ability. The apparatus, which is described in detail by Nash et al., supra, is a box that consists of two compartments: a main compartment for housing the rats and a minor compartment for the food, separated by a Plexiglas divider. The minor compartment is subdivided into slots of equal size, each holding a pellet of food. Between the slots and the Plexiglas there is a gap. The apparatus is configured such that in order to retrieve a food pellet from a slot, a rat must extend a forelimb through a hole in the Plexiglas divider, and grasp the pellet and lift it over the gap and out of the slot. If the rat merely rakes the food in the slot towards the hole in the Plexiglas, the food will drop from the slot into the gap and fall to the floor of the minor compartment. The floor of the minor compartment can be configured to allow a rat to retrieve food that drops or it can be lowered to prevent the rat from reaching dropped food. Prior to inducing spinal injury, the rats are food restricted, receiving ˜3 gm food/100 gm body weight per day, before and throughout training and testing. Weight is monitored to ensure that rats are reduced to no less than 80% of their original body weight at any time. […]

[2] = system: adult DRG neurons (L4 and L5); experiment: Axonal growth ability of injected adult DRG neurons cultured in vitro for 12 hrs; format: in vivo, rat; conditions: injected into adult DRG; 3 or 7 days post-injection, cultured 12 hrs; vs saline
Procedure: (§1) Average axon length of the longest neurite from every individual neuron was measured and quantified as described before (Koprivica et al., 2005; Wang et al., 2002a; Wang et al., 2002b). Branching frequency was measured by dividing the number of branches from the longest neurite by the length of the neurite, as previously described (Smith and Skene, 1997). All measurements were made from at least 150 neurons per condition, from duplicate wells and from three independent experiments.
We next examined whether inhibiting this signaling pathway could enhance the intrinsic growth state of adult DRG neurons by pharmacological approaches. We injected SB505124 or the same volume of saline into the adult DRG (L4 and L5). 3 or 7 days post-injection, the axonal growth ability of injected DRG neurons were assayed by culturing DRG neurons in vitro for 12 hrs.

Smad2/3 signaling [3] = experiment: Count of BDT-labeled CST axons caudal to spinal cord lesion; format: in vivo, Sprague Dawley rats; conditions: rats, seven weeks and 3 d after lesioning; 1-19 mm caudal to lesion; vs lesioned control rats
From the text: Rats are randomly assigned to control or experimental groups. Sham control rats undergo surgical procedure without lesioning, and with or without placement of an intrathecal catheter. Lesioned control rats receive no treatment, tail injection vehicle only treatment, intrathecal catheter only treatment, intrathecal catheter with vehicle only treatment, or intrathecal catheter and mismatch siRNA treatment. After anesthesia with isoflurane, the rats are placed on an operating board in such a way as to bend the cervical spinal cord for maximum exposure. A laminectomy is performed exposing the dorsum of the spinal cord between C2 and C4. The dorsal columns are identified bilaterally, and, in all rats except for those in the sham group, a suture needle is passed through the spinal cord, isolating the dorsal funiculus. The suture thread is gently lifted, and a pair of iridectomy scissors is used to bilaterally transect the dorsal funiculus, thereby transecting the dorsal corticospinal tract (CST). […]
Seven weeks after injury, rats are prepared for injection of biotin dextran tetramethylrhodamine (BDT; Molecular Probes). […] After anesthesia with isoflurane (5%), rats are placed in a stereotaxic instrument, and a total of six stereotaxically determined holes (0.9 mm diameter) are drilled in the skull over the primary motor cortices associated with the forelimbs. […]

phospho-Smad2 = experiment: Phospho-Smad2 in adult DRG after intraganglionic injection; format: in vivo, rat; conditions: 2 μl of 5-10 mM injected into adult DRG (L4 and L5); pilot experiments
[4] = system: dissociated adult rat DRG neurons; experiment: Axonal growth of adult rat DRG neurons overexpressing Smad7; format: cell-based; conditions: Smad7 overexpression vs control GFP
Procedure: (§2) For overexpression of Smad7 in DRGs, adult rat DRG neurons were co-transfected by electroporation with 2 μg pEGFP (Invitrogen) and 5 μg of an expression construct for FLAG-tagged Smad7 (Nakao et al., 1997) or control plasmid using the Rat Neuron Nucleofector Kit (Amaxa) following manufacturer's protocol. After brief purification, the neurons were plated at a density of 200-500 cells/mm2. For overexpression of Smad7 in cerebellar granule neurons (CGN), CGNs from P6 Sprague-Dawley rat pups were dissected, plated onto poly-D-lysine (20 μg/ml), and cultured in Basal Medium Eagle (Gibco) supplemented with 10% calf serum, 25 mM KCl, 2 mM L-glutamine, penicillin and streptomycin, at a density of 2.5×10^3 cells/mm2. CGNs were co-transfected with pEGFP and Smad7 or control plasmid at a 1 to 3 ratio using a modified calcium phosphate transfection method as described before (Konishi et al., 2004). […]
as §1, with “All measurements were made from at least 150 neurons per condition, from duplicate wells and from three independent experiments.” left out

[5] = system: cerebellar granule neurons (CGNs) from postnatal rats; experiment: Axonal growth of cerebellar granule neurons overexpressing Smad7; format: cell-based, rat; conditions: Smad7 expression, effect became stronger with time
Procedure: as §2
as §1, with “All measurements were made from at least 150 neurons per condition, from duplicate wells and from three independent experiments.” left out

embryonic DRG neurons = experiment: Effect of activin A on axonal growth ability of embryonic DRG neurons (prior experiments); format: cell-based
adult DRG neurons = experiment: Effect of activin A on axonal elongation of adult DRG neurons (prior experiments); format: cell-based

Cc1cccc(-c2[nH]c(C(C)(C)C)nc2-c2ccc3c(c2)OCO3)n1.Cl [SB-505124, 2-(5-benzo[1,3]dioxol-5-yl-2-tert-butyl-3H-imidazol-4-yl)-6-methylpyridinehydrochloride]
DFR task performance (functional recovery after spinal injury) (Smad2/3 signaling [1]): Significantly better performance
axonal elongation of DRG neurons [2]: significantly increased axonal elongation
branching frequency of DRG neurons [2]: reduced branching frequency
number of BDT-labeled axons caudal to the lesion (Smad2/3 signaling [3]): Significantly more labeled axons at each distance
phospho-Smad2 in the injected DRGs (phospho-Smad2): significant reduction of phospho-Smad2

B1: Smad7: FLAG-tagged Smad7 overexpressed from an expression construct; competes with Smad2/3 for binding to activated ALK (protein, UniProt O15105 1-426, looked up)
Mothers against …: MFRTKRSALVRRLWRSRAPGGEDEEEGAGGGGGGGELRGEGATDSRAHGAGGGGPGRAGCCLGKAVRGAKGHHHPHPPAAGAGAAGGAEADLKALTHSVLKKLKERQLELLLQAVESRGGTRTACLLLPGRLDCRLGPGAPAGAQPAQPPSSYSLPLLLCKVFRWPDLRHSSEVKRLCCCESYGKINPELVCCNPHHLSRLCELESPPPPYSRYPMDFLKPTADCPDAVPSSAETGGTNYLAPGGLSDSQLLLEPGDRSHWCVVAYWEEKTRVGRLYCVQEPSLDIFYDLPQGNGFCLGQLNSDNKSQLVQKVRSKIGCGIQLTREVDGVWVYNRSSYPIFIKSATLDNPDSRTLLVHKVFPGFSIKAFDYEKAYSLQRPNDHEFMQQPWTGFTVQISFVKGWGQCYTRQFISSCPCWLEVIFNSR
modifications: FLAG tag
rate of axonal growth [4]: significantly enhanced the rate of axonal growth
axonal growth rate [5]: dramatically increase axonal growth rate

B2: activin A: TGFβ family member produced in skin (protein, UniProt P08476 311-426, looked up)
Inhibin beta A chain: GLECDGKVNICCKKQFFVSFKDIGWNDWIIAPSGYHANYCEGECPSHIAGTSGSSLSFHSTVINHYRMRGHSPFANLKSCCVPTKLRPMSMLYYDDGQNIIKKDIQNMIVEECGCS
axonal growth ability (embryonic DRG neurons): triggers a decline in axonal growth ability
axonal elongation ability (adult DRG neurons): reduces axonal elongation ability
